Laboratory results as given in patent publication EP1948196B1, “USE OF TETRAORGANOSILICON COMPOUNDS” (Salama, Zoser B., priority 2005, dated 2007).
≈ marks a conversion by molar mass, not a printed value. Numbered stars: 1 amine (or outer) side, 2 acyl side, 3 side chain; on linkers, the order of the positions; unused ones are H or OH. Bridge positions count the residues as written; N and C are the ends. Peptide text beside a SMILES is read from it. I, II: the chains in the order shown. OSiEt2O = CC[Si](CC)(O[*:1])O[*:2]

What was measured:
[1] = test system: Medulloblastome; test: Effect on medulloblastomas
[2] = test system: Panc1 Pankreaskrebszellen; test: subG1 apoptotic fraction, propidium iodide, flow cytometry; assay type: cell-based; details: 50 µg/ml, 4 Tage
Protocol: (§1) Die Zellen (IEC6 mausartige Enterozyten; Panc1 Pankreaskrebszellen; Colo205 Kolonkarzinom) wurden mit 50 µg/ml Silanen inkubiert und nach 4-tägiger Aussetzung auf DNA eingefärbt (Propidiumiodid). Die SubG1 Zellteilung wurde mittels Durchflusscytometrie bestimmt.

[3] = test system: IEC6 mausartige Enterozyten; test: as above; assay type: cell-based; details: 50 µg/ml, 4 Tage
Protocol: as §1

[4] = test system: Colo205 Kolonkarzinom; test: as above; assay type: cell-based; details: 50 µg/ml, 4 Tage
Protocol: as §1

[5] = test system: CRO2B - karzinoid; test: MTT assay / EZ4U test, 4 days; assay type: cell-based; details: read-out: IC50 CR02B
Protocol: (§2) Die Silane 1, 5, 9, 10, 11, 13, 15, 16 wurden in Ethanol gelöst und in MTT Assays in einer anfänglichen Konzentration von 200 µg/ml (5 Lösungsschritte 200 - 12.5 µg/ml) verwendet. Die Platten wurde für eine Dauer.von 4 Tagen inkubiert und die Entwicklungsfähigkeit mithilfe des EZ4U Test bestimmt. Die IC50 Werte wurden ausgehend von Dosierungs-Reaktions-Linien berechnet Zelllinien: Colo 205 and HT29 - Kolonkarzinom; BxPC3 and MIAPaCa2 - Pankreaskrebs; CRO2B - karzinoid, A431 Epidermalkarzinom; normale Zellen: WI38 - humane embryonale Fibroblasten; NIH3T3 - mausartige Fibroblasten; IEC6 - mausartige Enterozyten.

[6] = test system: MIAPaCa2 - Pankreaskrebs; test: MTT assay / EZ4U test, 4 days; assay type: cell-based; details: Homo sapiens, MIA PaCa-2, read-out: IC50 MlAPaCa2
Protocol: as §2

[7] = test system: WI38 - humane embryonale Fibroblasten; test: MTT assay / EZ4U test, 4 days; assay type: cell-based; details: Homo sapiens, WI-38, read-out: IC50 WI38
Protocol: as §2

[8] = test system: Colo 205 - Kolonkarzinom; test: MTT assay / EZ4U test, 4 days; assay type: cell-based; details: Homo sapiens, COLO 205, read-out: IC50 Colo205
Protocol: as §2

[9] = test system: A431 Epidermalkarzinom; test: MTT assay / EZ4U test, 4 days; assay type: cell-based; details: Homo sapiens, A-431, read-out: IC50 A431
Protocol: as §2

[10] = test system: NIH3T3 - mausartige Fibroblasten; test: MTT assay / EZ4U test, 4 days; assay type: cell-based; details: Mus musculus, NIH3T3, read-out: IC50 NIH3T3
Protocol: as §2

[11] = test system: IEC6 - mausartige Enterozyten; test: MTT assay / EZ4U test, 4 days; assay type: cell-based; details: Rattus norvegicus, IEC-6, read-out: IC50 IEC6
Protocol: as §2

[12] = test system: BxPC3 - Pankreaskrebs; test: MTT assay / EZ4U test, 4 days; assay type: cell-based; details: Homo sapiens, BXPC-3, read-out: IC50 BxPC3
Protocol: as §2

[13] = test system: HT29 - Kolonkarzinom; test: MTT assay / EZ4U test, 4 days; assay type: cell-based; details: Homo sapiens, HT-29, read-out: IC50 HT29
Protocol: as §2

[14] = test system: Normale Zellen; test: Mean IC50 over all normal cell lines; assay type: cell-based; details: read-out: IC50 Normale Zellen (Durchschnitt ± SD)
Protocol: as §2
(§3) Mittelwerte-IC50 für alle Krebs- oder normalen Zelllinien: […]

[15] = test system: Krebszellen; test: Mean IC50 over all cancer cell lines; assay type: cell-based; details: read-out: IC50 Krebszellen (Durchschnitt ± SD)
Protocol: as §2, §3

[16] = test system: colo205 (Kofon-Karzinom); test: MTT test, triplicate, two-fold dilutions; assay type: cell-based; details: Homo sapiens, COLO 205, read-out: IC50 Colo205
Protocol: (§4) Die Silan wurden in Ethanol aufgelöst und in Zellkulturmedien in Konzentrationen von bis zu 500 µg/ml resuspendiert. Es wurden MTT Tests in dreifacher Ausführung durchgeführt, für welche doppelte Lösungen (7 Schritte) und colo205 (Kofon-Karzinom), BxPC3 (pankreatisches Adenokarzinom) sowie T47D (Brustkrebs) benutzt wurden.

[17] = test system: BxPC3 (pankreatisches Adenokarzinom); test: MTT test, triplicate, two-fold dilutions; assay type: cell-based; details: Homo sapiens, BXPC-3, read-out: IC50 BxPC3
Protocol: as §4

[18] = test system: T47D (Brustkrebs); test: MTT test, triplicate, two-fold dilutions; assay type: cell-based; details: Homo sapiens, T47D, read-out: IC50 T47D
Protocol: as §4

[19] = test system: Rhino-Viren; test: Antiviral effect; details: in particular as vesicles holding antisense constructs
[20] = test system: Osteosarkome; test: Effect on osteosarcomas

| Structure (SMILES) | Wirkung gegen Medulloblastome [1] | subG1 apoptotische Zellteilung Panc1 [2] | subG1 apoptotische Zellteilung IEC6 [3] | subG1 apoptotische Zellteilung Colo205 [4] | IC50 [5] [µg/mL] | IC50 [6] [µg/mL] | IC50 [7] [µg/mL] | IC50 [8] [µg/mL] | IC50 [9] [µg/mL] | IC50 [10] [µg/mL] | IC50 [11] [µg/mL] | IC50 [12] [µg/mL] | IC50 [13] [µg/mL] | IC50 [14] [µg/mL] | IC50 [15] [µg/mL] | IC50 [16] [µg/mL] | IC50 [17] [µg/mL] | IC50 [18] [µg/mL] | Wirkung gegen Rhino-Viren [19] | Wirkung auf Osteosarkome [20] |
| --- | --- | --- | --- | --- | --- | --- | --- | --- | --- | --- | --- | --- | --- | --- | --- | --- | --- | --- | --- | --- |
| CC[Si](CC)(OC(=O)CNC(=O)CNC(=O)CNC(=O)CN)OC(=O)CNC(=O)CNC(=O)CNC(=O)CN [Diethyl bis(tetraglycyl)silylester] (I: H-GGGG / II: H-GGGG; linker I:C-II:C via OSiEt2O) | zeigen eine Wirkung |  |  |  |  |  |  |  |  |  |  |  |  |  |  |  |  |  |  |  |
| C[Si](C)(OC(=O)CNC(=O)CNC(=O)CNC(=O)CNC(=O)CNC(=O)CNC(=O)CNC(=O)CNC(=O)CN)OC(=O)CNC(=O)CNC(=O)CNC(=O)CNC(=O)CNC(=O)CNC(=O)CNC(=O)CNC(=O)CN [Dimethyl bis(nonaglycyl)silylester] | zeigen eine Wirkung |  |  |  |  |  |  |  |  |  |  |  |  |  |  |  |  |  |  |  |
| CCCCCCCCCCCCCCCCC(=O)O[Si](CC)(CC)OC(=O)CCCCCCCCCCCCCCCC [Si1, Di (heptadecanoyloxy) diethylsilan] |  | 57,7 ± 0,07 | 6,55 ± 0,49 | 3.0 ± 0,14 | 22.8 (≈ 36.5 µM) | 50 (≈ 80 µM) | 26.2 (≈ 41.9 µM) | 37 (≈ 59.2 µM) | 31.8 (≈ 50.9 µM) | 36.2 (≈ 57.9 µM) | 28.1 (≈ 45 µM) | 37 (≈ 59.2 µM) | 41.5 (≈ 66.4 µM) | 30.1 (≈ 48.2 µM) | 33.2 (≈ 53.1 µM) | 125 (≈ 200 µM) | 15 (≈ 24 µM) | 15 (≈ 24 µM) |  |  |
| CCCCCCCCCCCCCCC(=O)O[Si](OC(=O)CCCCCCCCCCCCCC)(c1ccccc1)c1ccccc1 [Si5, Di (pentadecanoyloxy) diphenylsilan] |  | 52,8 ± 3,4 | 6,35 ± 0,63 | 3,4 ± 0,28 | 35 (≈ 52.6 µM) | 38.5 (≈ 57.9 µM) | 36.5 (≈ 54.9 µM) | 43.8 (≈ 65.9 µM) | 36.3 (≈ 54.6 µM) | 55 (≈ 82.7 µM) | 32.5 (≈ 48.9 µM) | 25 (≈ 37.6 µM) | 40 (≈ 60.1 µM) | 41.3 (≈ 62.1 µM) | 34 (≈ 51.1 µM) | 70 (≈ 105 µM) | 60 (≈ 90.2 µM) | 20 (≈ 30.1 µM) | zeigen eine Wirkung | zeigen eine Wirkung |
